Reference: patent publication US10981911B2, “Imidazopyrrolopyridine as inhibitors of the JAK family of kinases” (Janssen Pharmaceutica NV, priority 2016, dated 2021)

Assays:
Format in all cases: biochemical
[1] = biological target: JAK1-JH1JH2 (Homo sapiens (Human), UniProt P23458); assay: Enzymatic inhibition assay (RapidFire HTMS), JAK1; details: 12.5 μM ATP, 200 μM substrate; read-out: JAK1-JH2JH1 IC50
How it was run: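 Quenched with 0.5% TFA plus internal-standard peptide; phosphorylated product quantified by RapidFire C4 SPE–ESI-MS, 11-point 1:3 or 1:4 dilutions in duplicate.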

[2] = biological target: JAK2-JH1JH2 (Homo sapiens (Human), UniProt O60674); assay: Enzymatic inhibition assay (RapidFire HTMS), JAK2; details: 30 μM ATP, 40 μM substrate
Description: LC/MS grade Water and Acetonitrile (ACN), were purchased from HoneyWell, Burdick & Jackson (Muskegon, Mich., USA). Dimethylsulfoxide 99.8% (DMSO) and Trifluoroacetic Acid 99.5% (TFA) were purchased from EMD Chemical (Gibbstown, N.J., USA). Adenosine triphosphate (ATP), 4-Morpholinepropanesulfonic acid (MOPS), Magnesium chloride (MgCl2), ethylenediaminetetraacetic acid (EDTA), dithiothreitol (DTT), formic acid >95% (FA) and Tween-20 were purchased from Sigma (St Louis, Mo., USA). 384-well polypropylene plates, Cat #781280 were purchased from Greiner (Monroe, N.C.), RapidFire™ cartridge A C4 Column (Agilent Technologies, Santa Clara, Calif.).
The HTMS experiments were performed in positive ionization mode on a RapidFire 300 instrument (Agilent Technologies, Santa Clara, Calif.), coupled with an ABSiex QTrap 4000 system with an Electrospray Ionization source (RF-MS) (Concord, ON, Canada). […] The entire system was operated using the RapidFire software interfaced with Analyst software for the mass spectrometer.
11-point dosing series were made for each compound by serially diluting 1:3 or 1:4 in DMSO, with point 12 being a DMSO control. From the serial dilution plates, sample was transferred to a 384 wells assay plate (#781280, Greiner, Monroe, N.C.) using Labcyte Echo (Sunnyvale, Calif.), or Biosero ATS (San Diego, Calif.). The compounds were tested in duplicate. Column 12 was used for positive controls, and column 24 contained negative controls with no enzyme added. A compound from our internal collection, with inhibitory activity for JAK isoforms, was used as a reference compound. The final concentration of DMSO was ≤0.25% in a 20 μL reaction. […] The Tyk2 enzyme was pre-incubated with 2 mM ATP for 30 min prior to the reaction initiation. Immediately after the addition of the enzyme to the reaction mixture, the plate was centrifuged at 1000 rpm for 1 minute and incubated at 25° C. for 45 minutes for JAK 3 and 90 minutes for JAK1, JAK2 and Tyk2. The reaction was quenched by the addition of 20 μL of 0.5% TFA containing 0.15 μM of internal standard peptide using Multidrop Combi reagent dispenser (Thermo Scientific, Waltham, Mass.). […] After the quench, the assay plate was centrifuged at 3000 rpm for 3 minutes and sealed with pierceable aluminum foil (Cat #06644-001, Agilent) using a PlateLoc (Agilent Technologies, Santa Clara, Calif.). The plates then were transferred on to the RapidFire for the MS analysis. Compound inhibition was assessed by a decrease of the phosphorylated product levels in sample wells compared to the non-inhibited enzyme reaction.
The sample analysis on the RapidFire was performed using a mobile phase A consisting of Water/TFA/FA (100:0.01:0.1, v/v/v), a mobile phase B consisting of ACN/Water/TFA/FA (80:20:0.01:0.1, v/v/v). […] The samples were aspirated directly from the 384 assay plate and delivered onto RF-MS microscale solid-phase C4 extraction cartridge (Type A). The undesired component such as salt, cofactor, detergent and large protein were washed out and the retained analytes (substrate, product and IS) were coeluted directly onto the ABSiex Qtrap 4000 system.

[3] = biological target: JAK3-JH1JH2 (Homo sapiens (Human), UniProt P52333); assay: Enzymatic inhibition assay (RapidFire HTMS), JAK3; details: 150 μM ATP, 40 μM substrate
How it was run: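 Compounds tested in duplicate over 11-point 1:3 or 1:4 dilution series; no-enzyme wells as negative control. After 45 min at 25 °C, TFA quench with internal standard, and phosphorylated product quantified by RapidFire–QTrap mass spectrometry relative to the uninhibited reaction.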

[4] = biological target: Tyk2-JH1JH2 (Homo sapiens (Human), UniProt P29597, C1142A/C936A); assay: Enzymatic inhibition assay (RapidFire HTMS), Tyk2; details: 50 μM ATP, 200 μM substrate
How it was run: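 Compounds were tested in duplicate as 11-point 1:3 or 1:4 DMSO dilutions (≤0.25% DMSO final) in 20 μL reactions at 25 °C for 90 min, with Tyk2 pre-incubated 30 min with 2 mM ATP. Reactions were quenched with TFA plus internal standard peptide, and phosphorylated product was quantified by RapidFire C4 SPE–ESI MS.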

Chain of JAK3-JH1JH2 (P52333 512-1124): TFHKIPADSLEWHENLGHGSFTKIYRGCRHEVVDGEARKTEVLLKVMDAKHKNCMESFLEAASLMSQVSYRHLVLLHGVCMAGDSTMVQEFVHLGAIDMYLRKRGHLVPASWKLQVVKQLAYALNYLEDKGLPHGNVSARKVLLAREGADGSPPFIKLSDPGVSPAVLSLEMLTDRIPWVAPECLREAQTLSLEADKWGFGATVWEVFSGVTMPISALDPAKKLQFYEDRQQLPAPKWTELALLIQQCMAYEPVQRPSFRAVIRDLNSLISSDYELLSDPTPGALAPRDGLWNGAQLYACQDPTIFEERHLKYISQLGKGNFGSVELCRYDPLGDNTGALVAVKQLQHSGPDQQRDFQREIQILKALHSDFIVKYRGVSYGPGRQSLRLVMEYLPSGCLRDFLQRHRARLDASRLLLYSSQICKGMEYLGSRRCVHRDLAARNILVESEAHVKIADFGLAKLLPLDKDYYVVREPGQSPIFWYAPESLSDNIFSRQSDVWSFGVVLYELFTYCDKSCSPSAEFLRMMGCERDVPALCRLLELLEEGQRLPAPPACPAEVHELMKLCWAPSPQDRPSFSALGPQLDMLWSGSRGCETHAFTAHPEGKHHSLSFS
Chain of JAK2-JH1JH2 (O60674 532-1132): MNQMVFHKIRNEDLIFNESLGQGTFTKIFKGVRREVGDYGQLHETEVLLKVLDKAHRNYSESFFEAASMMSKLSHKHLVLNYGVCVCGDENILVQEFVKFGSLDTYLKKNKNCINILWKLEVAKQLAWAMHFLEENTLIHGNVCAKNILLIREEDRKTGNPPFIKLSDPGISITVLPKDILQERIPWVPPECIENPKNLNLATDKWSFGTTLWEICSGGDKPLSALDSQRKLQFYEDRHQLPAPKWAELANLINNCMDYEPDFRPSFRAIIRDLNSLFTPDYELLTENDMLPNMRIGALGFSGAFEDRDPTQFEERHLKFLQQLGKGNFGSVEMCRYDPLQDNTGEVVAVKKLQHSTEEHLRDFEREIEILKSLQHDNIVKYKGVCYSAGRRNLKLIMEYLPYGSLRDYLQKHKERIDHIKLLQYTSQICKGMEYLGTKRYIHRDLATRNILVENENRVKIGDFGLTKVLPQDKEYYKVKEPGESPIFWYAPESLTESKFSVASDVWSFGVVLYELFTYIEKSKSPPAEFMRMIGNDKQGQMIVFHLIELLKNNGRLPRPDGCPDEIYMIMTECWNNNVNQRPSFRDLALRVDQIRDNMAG
Chain of Tyk2-JH1JH2 (P29597 580-1182 C936A/C1142A): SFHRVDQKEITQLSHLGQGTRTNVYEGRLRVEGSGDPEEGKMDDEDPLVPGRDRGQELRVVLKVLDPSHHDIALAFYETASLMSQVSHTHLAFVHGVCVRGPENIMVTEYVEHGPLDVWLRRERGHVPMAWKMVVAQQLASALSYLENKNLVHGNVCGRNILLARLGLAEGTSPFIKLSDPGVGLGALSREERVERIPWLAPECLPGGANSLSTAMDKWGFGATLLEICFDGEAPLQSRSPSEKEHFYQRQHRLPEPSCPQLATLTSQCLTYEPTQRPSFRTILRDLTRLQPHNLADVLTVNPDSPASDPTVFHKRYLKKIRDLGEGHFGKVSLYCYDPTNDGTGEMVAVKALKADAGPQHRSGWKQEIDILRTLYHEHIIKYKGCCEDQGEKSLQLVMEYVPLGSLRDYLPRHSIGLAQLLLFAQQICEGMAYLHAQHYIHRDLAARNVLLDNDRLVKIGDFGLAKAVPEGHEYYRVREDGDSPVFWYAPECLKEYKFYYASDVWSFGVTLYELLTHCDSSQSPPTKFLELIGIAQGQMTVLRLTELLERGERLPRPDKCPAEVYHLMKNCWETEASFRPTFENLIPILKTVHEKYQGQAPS
Chain of JAK1-JH1JH2 (P23458 574-1154): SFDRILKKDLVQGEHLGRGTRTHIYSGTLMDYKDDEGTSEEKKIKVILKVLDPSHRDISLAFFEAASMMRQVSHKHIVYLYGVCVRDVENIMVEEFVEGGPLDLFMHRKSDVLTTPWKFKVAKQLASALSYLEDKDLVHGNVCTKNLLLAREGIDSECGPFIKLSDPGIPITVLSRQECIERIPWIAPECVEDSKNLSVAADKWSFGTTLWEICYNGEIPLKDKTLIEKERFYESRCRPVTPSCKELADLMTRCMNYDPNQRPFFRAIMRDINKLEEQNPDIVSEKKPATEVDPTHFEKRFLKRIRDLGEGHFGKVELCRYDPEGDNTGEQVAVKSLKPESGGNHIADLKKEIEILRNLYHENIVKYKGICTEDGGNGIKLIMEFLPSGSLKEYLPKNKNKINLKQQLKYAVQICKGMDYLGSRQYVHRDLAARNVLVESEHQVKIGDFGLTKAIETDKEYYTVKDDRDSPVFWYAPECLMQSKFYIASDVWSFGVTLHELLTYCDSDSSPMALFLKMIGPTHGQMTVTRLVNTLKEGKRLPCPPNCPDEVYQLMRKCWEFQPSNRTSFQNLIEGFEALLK

Row | SMILES | IC50 [1] | IC50 [2] | IC50 [3] | IC50 [4]
1 | N#CC[C@H]1CC[C@H](n2c(CC(=O)N3CC[C@H](O)C3)nc3cnc4[nH]ccc4c32)CC1 [Ex. 42, 2-((1S,4r)-4-(2-(2-((S)-3-Hydroxypyrrolidin-1-yl)-2-oxoethyl)imidazo[4,5-d]pyrrolo[2,3-b]pyridin-1(6H)-yl)cyclohexyl)acetonitrile] | 0.2 nM | 24.4 nM | 439 nM | 7.8 nM
2 | N#CC[C@H]1CC[C@H](n2c(CC(=O)NCCOc3ccncc3)nc3cnc4[nH]ccc4c32)CC1 [Ex. 43, 2-(1-((1r,4r)-4-(Cyanomethyl)cyclohexyl)-1,6-dihydroimidazo[4,5-d]pyrrolo[2,3-b]pyridin-2-yl)-N-(2-(pyridin-4-yloxy)ethyl)acetamide] | 0.2 nM | 5.1 nM | 87.4 nM | 5.7 nM
3 | CC(C)(C)CNC(=O)Cc1nc2cnc3[nH]ccc3c2n1[C@H]1CC[C@H](CC#N)CC1 [Ex. 44, 2-(1-((1r,4r)-4-(Cyanomethyl)cyclohexyl)-1,6-dihydroimidazo[4,5-d]pyrrolo[2,3-b]pyridin-2-yl)-N-neopentylacetamide] | 0.2 nM | 5.4 nM | 52.3 nM | 6 nM
4 | N#CC[C@H]1CC[C@H](n2c(CC(=O)NCc3ccc(F)cc3)nc3cnc4[nH]ccc4c32)CC1 [Ex. 45, 2-(1-((1r,4r)-4-(Cyanomethyl)cyclohexyl)-1,6-dihydroimidazo[4,5-d]pyrrolo[2,3-b]pyridin-2-yl)-N-(4-fluorobenzyl)acetamide] | 0.2 nM | 6.1 nM | 183 nM | 12.2 nM
5 | N#CC[C@H]1CC[C@H](n2c(CNC(=O)Oc3ccccc3)nc3cnc4[nH]ccc4c32)CC1 [Ex. 46, Phenyl ((1-((1r,4r)-4-(cyanomethyl)cyclohexyl)-1,6-dihydroimidazo[4,5-d]pyrrolo[2,3-b]pyridin-2-yl)methyl)carbamate] | 0.2 nM | 14.5 nM | 214 nM | 5.5 nM
6 | N#CC[C@H]1CC[C@H](n2c(CC(=O)N[C@H]3CC[C@@H](O)CC3)nc3cnc4[nH]ccc4c32)CC1 [Ex. 47, 2-(1-((1r,4r)-4-(Cyanomethyl)cyclohexyl)-1,6-dihydroimidazo[4,5-d]pyrrolo[2,3-b]pyridin-2-yl)-N-((1S,4S)-4-hydroxycyclohexyl)acetamide] | 0.2 nM | 2.3 nM | 38.9 nM | 5.1 nM
7 | N#CC[C@H]1CC[C@H](n2c(CC(=O)N3CCCC3)nc3cnc4[nH]ccc4c32)CC1 [Ex. 49, 2-((1r,4r)-4-(2-(2-Oxo-2-(pyrrolidin-1-yl)ethyl)imidazo[4,5-d]pyrrolo[2,3-b]pyridin-1(6H)-yl)cyclohexyl)acetonitrile] | 0.2 nM | 43.5 nM | 249 nM | 4.2 nM
8 | N#CC[C@H]1CC[C@H](n2c(C(=O)N3CCC(O)(c4ccccc4)C3)nc3cnc4[nH]ccc4c32)CC1 (stereo partly drawn) [Ex. 50, 2-((1r,4r)-4-(2-(3-Hydroxy-3-phenylpyrrolidine-1-carbonyl)imidazo[4,5-d]pyrrolo[2,3-b]pyridin-1(6H)-yl)cyclohexyl)acetonitrile] | 0.2 nM | 4 nM | 99.9 nM | 21 nM
9 | N#CC[C@H]1CC[C@H](n2c(-c3cnc(N)nc3)nc3cnc4[nH]ccc4c32)CC1 [Ex. 51, 2-((1r,4r)-4-(2-(2-Aminopyrimidin-5-yl)imidazo[4,5-d]pyrrolo[2,3-b]pyridin-1(6H)-yl)cyclohexyl)acetonitrile] | 0.2 nM | 3.2 nM | 127 nM | 5.8 nM
10 | N#CC[C@H]1CC[C@H](n2c(-c3ccnc(N)n3)nc3cnc4[nH]ccc4c32)CC1 [Ex. 53, 2-((1r,4r)-4-(2-(2-Aminopyrimidin-4-yl)imidazo[4,5-d]pyrrolo[2,3-b]pyridin-1(6H)-yl)cyclohexyl)acetonitrile] | 0.2 nM | 3.2 nM | 61.8 nM | 9 nM
11 | N#CC[C@H]1CC[C@H](n2c(CC(=O)NC34CCC(C(N)=O)(CC3)C4)nc3cnc4[nH]ccc4c32)CC1 [Ex. 54, 4-(2-(1-((1r,4r)-4-(Cyanomethyl)cyclohexyl)-1,6-dihydroimidazo[4,5-d]pyrrolo[2,3-b]pyridin-2-yl)acetamido)bicyclo[2.2.1]heptane-1-carboxamide] | 0.2 nM | 2.1 nM | 42 nM | 4.2 nM
12 | N#CC[C@H]1CC[C@H](n2c(-c3ncc[nH]3)nc3cnc4[nH]ccc4c32)CC1 [Ex. 56, 2-((1r,4r)-4-(2-(1H-Imidazol-2-yl)imidazo[4,5-d]pyrrolo[2,3-b]pyridin-1(6H)-yl)cyclohexyl)acetonitrile] | 0.2 nM | 1.9 nM | 32.9 nM | 7.2 nM
13 | N#CC[C@H]1CC[C@H](n2c(CC(=O)NCC(F)(F)F)nc3cnc4[nH]ccc4c32)CC1 [Ex. 57, 2-(1-((1r,4r)-4-(Cyanomethyl)cyclohexyl)-1,6-dihydroimidazo[4,5-d]pyrrolo[2,3-b]pyridin-2-yl)-N-(2,2,2-trifluoroethyl)acetamide] | 0.2 nM | 5.6 nM | 69.5 nM | 3.4 nM
14 | N#CC[C@H]1CC[C@H](n2c(CC(=O)NC34CCC(C(N)=O)(CC3)CC4)nc3cnc4[nH]ccc4c32)CC1 [Ex. 58, 4-(2-(1-((1r,4r)-4-(Cyanomethyl)cyclohexyl)-1,6-dihydroimidazo[4,5-d]pyrrolo[2,3-b]pyridin-2-yl)acetamido)bicyclo[2.2.2]octane-1-carboxamide] | 0.3 nM | 1.4 nM | 31.4 nM | 3.3 nM
15 | CC(C)(O)CCNC(=O)Cc1nc2cnc3[nH]ccc3c2n1[C@H]1CC[C@H](CC#N)CC1 [Ex. 59, 2-(1-((1r,4r)-4-(Cyanomethyl)cyclohexyl)-1,6-dihydroimidazo[4,5-d]pyrrolo[2,3-b]pyridin-2-yl)-N-(3-hydroxy-3-methylbutyl)acetamide] | 0.3 nM | 6.7 nM | 122 nM | 7.2 nM
16 | N#CC[C@H]1CC[C@H](n2c(-c3cc[nH]n3)nc3cnc4[nH]ccc4c32)CC1 [Ex. 60, 2-((1r,4r)-4-(2-(1H-Pyrazol-3-yl)imidazo[4,5-d]pyrrolo[2,3-b]pyridin-1(6H)-yl)cyclohexyl)acetonitrile] | 0.3 nM | 1.7 nM | 72 nM | 3.4 nM
17 | CC(C)/C(=N/O)NCc1nc2cnc3[nH]ccc3c2n1[C@H]1CC[C@H](CC#N)CC1 [Ex. 61, (EZ)—N-((1-((1r,4r)-4-(cyanomethyl)cyclohexyl)-1,6-dihydroimidazo[4,5-d]pyrrolo[2,3-b]pyridin-2-yl)methyl)-N-hydroxyisobutyrimidamide] | 0.3 nM | 25.7 nM | 219 nM | 6.3 nM
18 | CC(C)CN1CCC(NC(=O)Cc2nc3cnc4[nH]ccc4c3n2[C@H]2CC[C@H](CC#N)CC2)CC1 [Ex. 62, 2-(1-((1r,4r)-4-(Cyanomethyl)cyclohexyl)-1,6-dihydroimidazo[4,5-d]pyrrolo[2,3-b]pyridin-2-yl)-N-(1-isobutylpiperidin-4-yl)acetamide] | 0.3 nM | 2.1 nM | 30.6 nM | 2.6 nM
